Test results published in ChEMBL document CHEMBL3714736, “Heterocyclic compounds for the inhibition of PASK” (2015).
Calls of active or inactive are those of the source. No cut-off for these calls is given here.

Experiments:
[1] = molecular target: T1, PAS domain-containing serine/threonine-protein kinase (Homo sapiens, UniProt Q96RG2); experiment: Inhibition of N-terminal GST-tagged human recombinant PASK kinase domain (879 to 1323 residues) expressed in insect cells using MBP protein substrate incubated for 120 mins in presence of [33P]ATP by scintillation counting based radiochemical assay
[2] = molecular target: T1, PAS domain-containing serine/threonine-protein kinase; experiment: Inhibition of human recombinant PASK using Ulight-peptide substrate incubated for 2 hrs by TR-FRET assay
Rattus norvegicus [3] = experiment: Reduction in body weight in high fructose diet fed Sprague-Dawley rat with fast/re-feed at 30 mg/kg, po dosed once daily for 7 days; type: functional, organism-based
Rattus norvegicus [4] = experiment: Increase in liver weight in high fructose diet fed Sprague-Dawley rat with fast/re-feed at 30 mg/kg, po dosed once daily for 7 days; type: ADME, organism-based; conditions: in vivo, 168 h
Mus musculus [5] = experiment: Reduction in liver weight in high-fat diet fed C57B16 mouse with fast/re-feed at 100 mg/kg, po daily for 3 days; type: functional; conditions: for inhibition in vivo at 100 mg/kg: 72 h
Rattus norvegicus [6] = experiment: Reduction in plasma glucose level in high fructose diet fed Sprague-Dawley rat with fast/re-feed at 30 mg/kg, po dosed once daily for 7 days by colorimetric assay; type: functional
Rattus norvegicus [7] = experiment: Reduction in plasma glucose level in high fructose diet fed Sprague-Dawley rat with fast/re-feed at 30 and 100 mg/kg, po dosed once daily for 7 days by colorimetric assay; type: functional, organism-based
Mus musculus [8] = experiment: Reduction in plasma glucose level in fasted C57B16 mouse at 30 to 100 mg/kg, po daily for 3 days by colorimetric assay; type: functional, organism-based
Mus musculus [9] = experiment: Reduction in body weight in high-fat diet fed C57B16 mouse with fast/re-feed at 30 to 100 mg/kg, po daily for 3 days; type: functional, organism-based
Mus musculus [10] = experiment: Reduction in plasma insulin level in high-fat diet fed C57B16 mouse with fast/re-feed at 30 to 100 mg/kg, po daily for 3 days by colorimetric assay; type: functional, organism-based
Rattus norvegicus [11] = experiment: Reduction in liver weight in high fructose diet fed Sprague-Dawley rat with fast/re-feed at 100 mg/kg, po dosed once daily for 7 days; type: functional; conditions: 168 h
Rattus norvegicus [12] = experiment: Reduction in plasma triglyceride level in high fructose diet fed Sprague-Dawley rat with fast/re-feed at 30 and 100 mg/kg, po dosed once daily for 7 days by colorimetric assay; type: functional, organism-based
Rattus norvegicus [13] = experiment: Reduction in plasma cholesterol level in high fructose diet fed Sprague-Dawley rat with fast/re-feed at 30 and 100 mg/kg, po dosed once daily for 7 days by colorimetric assay; type: functional, organism-based
Mus musculus [14] = experiment: Reduction in liver weight in high-fat diet fed C57B16 mouse with fast/re-feed at 30 mg/kg, po daily for 3 days; type: functional
Rattus norvegicus [15] = experiment: Reduction in liver weight in high fructose diet fed Sprague-Dawley rat with fast/re-feed at 30 and 100 mg/kg, po dosed once daily for 7 days; type: functional, organism-based
Mus musculus [16] = experiment: Reduction in plasma glucose level in high-fat diet fed C57B16 mouse with fast/re-feed at 100 mg/kg, po daily for 3 days by colorimetric assay; type: functional; conditions: 72 h
Mus musculus [17] = experiment: Reduction in plasma glucose level in high-fat diet fed C57B16 mouse with fast/re-feed at 30 to 100 mg/kg, po daily for 3 days by colorimetric assay; type: functional, organism-based
Rattus norvegicus [18] = experiment: Reduction in body weight in high fructose diet fed Sprague-Dawley rat with fast/re-feed at 30 and 100 mg/kg, po dosed once daily for 7 days; type: functional, organism-based
Mus musculus [19] = experiment: Reduction in plasma insulin level in fasted fed C57B16 mouse at 100 mg/kg, po daily for 3 days by colorimetric assay; type: functional; conditions: 72 h
Mus musculus [20] = experiment: Reduction in liver weight in high-fat diet fed C57B16 mouse with fast/re-feed at 30 to 100 mg/kg, po daily for 3 days; type: functional
Mus musculus [21] = experiment: Reduction in plasma insulin level in fasted fed C57B16 mouse at 30 mg/kg, po daily for 3 days by colorimetric assay; type: functional; conditions: 72 h

T1 sequence (Q96RG2 whole entry, the tested form may be a part): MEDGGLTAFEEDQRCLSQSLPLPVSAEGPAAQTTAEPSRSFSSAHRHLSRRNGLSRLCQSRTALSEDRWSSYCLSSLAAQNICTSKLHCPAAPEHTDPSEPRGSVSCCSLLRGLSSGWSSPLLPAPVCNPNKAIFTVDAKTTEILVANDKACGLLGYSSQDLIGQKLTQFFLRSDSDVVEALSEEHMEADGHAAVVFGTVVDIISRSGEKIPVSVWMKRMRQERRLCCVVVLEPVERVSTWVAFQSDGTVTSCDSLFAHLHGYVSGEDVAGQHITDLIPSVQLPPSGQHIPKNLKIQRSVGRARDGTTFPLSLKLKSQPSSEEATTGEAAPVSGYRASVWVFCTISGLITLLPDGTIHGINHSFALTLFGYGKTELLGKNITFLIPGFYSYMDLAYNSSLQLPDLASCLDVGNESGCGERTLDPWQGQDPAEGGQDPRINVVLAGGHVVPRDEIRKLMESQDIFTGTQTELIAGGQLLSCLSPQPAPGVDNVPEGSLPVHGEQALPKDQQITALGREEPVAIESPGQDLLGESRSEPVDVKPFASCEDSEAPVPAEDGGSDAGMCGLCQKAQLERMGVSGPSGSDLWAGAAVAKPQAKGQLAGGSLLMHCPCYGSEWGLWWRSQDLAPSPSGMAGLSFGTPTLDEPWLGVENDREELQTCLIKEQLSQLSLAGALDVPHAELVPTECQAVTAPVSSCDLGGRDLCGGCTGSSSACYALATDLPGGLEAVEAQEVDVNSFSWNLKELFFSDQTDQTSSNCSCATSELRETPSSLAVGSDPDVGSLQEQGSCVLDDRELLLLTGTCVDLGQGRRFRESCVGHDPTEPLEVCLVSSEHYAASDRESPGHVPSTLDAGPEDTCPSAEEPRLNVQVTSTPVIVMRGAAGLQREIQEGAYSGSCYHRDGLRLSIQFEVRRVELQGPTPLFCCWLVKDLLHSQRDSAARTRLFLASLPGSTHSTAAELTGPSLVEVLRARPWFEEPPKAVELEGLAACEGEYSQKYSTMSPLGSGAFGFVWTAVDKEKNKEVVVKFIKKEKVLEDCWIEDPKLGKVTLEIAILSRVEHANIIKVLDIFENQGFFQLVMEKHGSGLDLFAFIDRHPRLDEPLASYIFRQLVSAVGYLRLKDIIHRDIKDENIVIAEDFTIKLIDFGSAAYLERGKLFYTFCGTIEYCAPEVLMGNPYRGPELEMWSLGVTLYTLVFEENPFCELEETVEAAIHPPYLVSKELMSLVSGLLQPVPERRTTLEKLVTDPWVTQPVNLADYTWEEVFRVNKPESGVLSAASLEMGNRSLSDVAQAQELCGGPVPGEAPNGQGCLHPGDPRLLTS

With CN(C1CCN(c2nc3cc(C(=O)O)ccc3nc2-c2ccccc2)CC1)S(C)(=O)=O the IC50 [1] was no more than 10 µM.
CC(C)N(C)c1nc2cc(C(=O)O)ccc2nc1-c1ccc2nccn2c1 gave an IC50 [2] of no more than 10 µM.
Molecule O=C(O)c1ccc2nc(-c3ccc4c(c3)OCO4)c(N3CCCc4ccccc43)nc2c1 has an IC50 [2] of no more than 10 µM.
CC(C)OC(=O)C1=CN(C(=O)c2ccc(F)c(F)c2)CC(C)(C)c2c1[nH]c1ccccc21 [TUROFEXORATE ISOPROPYL] was tested, and the Activity (Rattus norvegicus [3]) was “inactive”, the Activity (Rattus norvegicus [4]) was 15% and the inhibition in vivo at 100 mg/kg (Mus musculus [5]) was 7%. For the same molecule, the inhibition (Rattus norvegicus [6]) was “inactive”.
In the case of CC(C)N(C)c1nc2cc(C(=O)O)ccc2nc1-c1ccc(F)cc1, the inhibition (Rattus norvegicus [7]) is reported as “Dose-dependent effect”, the inhibition (Mus musculus [8]) is reported as “Dose-dependent effect” and the inhibition (Mus musculus [9]) is reported as “Dose-dependent effect”. The inhibition (Mus musculus [10]) was “Dose-dependent effect”, the inhibition in vivo at 100 mg/kg (Rattus norvegicus [11]) was 4% and the inhibition (Rattus norvegicus [12]) was “Dose-dependent effect”. The inhibition (Rattus norvegicus [13]) was “Active”, the inhibition (Mus musculus [14]) was “Dose-dependent effect” and the inhibition in vivo at 30 mg/kg (Mus musculus [14]; 72 h) was 7%. The inhibition (Rattus norvegicus [15]) was “Active”, the inhibition in vivo at 100 mg/kg (Mus musculus [16]) was no more than 27% and the inhibition (Mus musculus [17]) was “Dose-dependent effect”. The inhibition (Rattus norvegicus [18]) was “Active”, the inhibition in vivo at 100 mg/kg (Mus musculus [19]) was no more than 26% and the inhibition (Mus musculus [5]) was “Dose-dependent effect”. The inhibition in vivo at 100 mg/kg (Mus musculus [5]) was 7%, the inhibition (Mus musculus [20]) was “Dose-dependent effect” and the “inhibition (INH)” value (Mus musculus [20]) was 7%. The inhibition in vivo at 30 mg/kg (Mus musculus [21]) was no more than 26%.
